4 compounds from US6620796B1, “Combinatorial library synthesis and pharmaceutically active compounds produced thereby” (Micrologix Biotech Inc., priority 1999, dated 2003) can be followed below.

Each structure is given as a SMILES string. Read-outs that look alike come from different tables or passages of the source. Some results are limits rather than exact numbers.

Type in all cases: cell-based
Data set [1] in a line: Toxicity analysis by neutral red dye uptake in 2.2.15 cells. To be noted: human, neutral red dye uptake. Here is the method:
(§1) Cells for toxicity analyses were cultured and treated with four concentrations of the test compound. Uptake of neutral red dye was used to determine the relative level of toxicity 24 hours following the last treatment. The absorbance of internalized dye at 510 nm (A510 ) was used for the quantitative analysis. The percentage of dye uptake in the control (untreated) cell cultures was 100±3.

Data set [2] has as its system 2.2.15 cells. Described as above. The procedure: as §1
In data set [3] the test system is hepatits B virus (HBV). Description: Inhibition of HBV: extracellular virion HBV DNA in 2.2.15 cell cultures. To be noted: for HBV Virion DNA Levels at indicated Drug Concentration: untreated control 114±16 pg/ml. The procedure:
Briefly, confluent 2.2.15 cell cultures infected with an HBV strain were treated with 9 consecutive daily doses of four concentrations of test compound. Extracellular virion HBV DNA levels were followed 24 hours after the last treatment. The level of HBV virion DNA in the 24 control (untreated) cultures in these experiments was 114±16 pg/ml culture medium.

[4] abbreviates: HBV replication, 2.2.15 cells, 9 consecutive daily doses, virion DNA 24 hours after last treatment, read-out: EC50.
The mark [5] stands for this setting: HBV replication, 2.2.15 cells, 9 consecutive daily doses, virion DNA 24 hours after last treatment, read-out: EC90.

A word on the CC50: it is the concentration at which the toxic effect on the cells reaches its halfway point. Lower therefore signals greater toxicity to the cells. A word on the EC50: it is the concentration that produces a half-maximal response. As a reminder, the EC90 is the point of the concentration-response curve where the effect stands at 90%. Compound `C=C(C)CC/C=C/COP(=O)(S)OC[C@H]1O[C@@H](n2cnc3c(N)ncnc32)C[C@@H]1O` (stereo partly drawn) [Nucleoside W198-10] gave a CC50 in data set [1] greater than 300 µM. The “Neutral Red Dye Uptake at Indicated Drug Concentration” value (shortened to “Neutral Red Dye Uptake”) in data set [2] (10 μM) is recorded as 100 ± 1 % of control; in data set [2] (30 μM) it was 102 ± 2 % of control; in data set [2] (100 μM), 99 ± 1 % of control; in data set [2] (300 μM), 98 ± 1 % of control. Further, the “HBV Virion DNA Levels at indicated Drug Concentration” value (shortened to “HBV Virion DNA Levels”) in data set [3] (0.01 μM, 2.2.15 cells) came to 127 ± 10 pg/ml culture; in data set [3] (0.1 μM, 2.2.15 cells), 121 ± 10 pg/ml culture; in data set [3] (1.0 μM, 2.2.15 cells), 139 ± 10 pg/ml culture; in data set [3] (10 μM, 2.2.15 cells), 46 ± 2 pg/ml culture. In data set [3] (24 h), this compound returned an EC50 of 7.7 ± 0.9 µM. In data set [3] (24 h), this compound yielded a 90% effect concentration (EC90) of 24 ± 0.8 µM. In addition, the “Selectivity Index (CC50/EC90)” value in data set [3] (HBV replication, 2.2.15 cells) is recorded as greater than 13.

Consider `C/C=C(/COP(=O)(S)OC[C@H]1O[C@@H](n2cnc3c(N)ncnc32)C[C@@H]1O)c1ccccc1` (stereo partly drawn) [Nucleoside W198-21], for which, in data set [1], the CC50 is greater than 300 µM. In addition, the “Neutral Red Dye Uptake” value in data set [2] (10 μM) was 99 ± 3 % of control; in data set [2] (30 μM), 99 ± 1 % of control; in data set [2] (100 μM), 100 ± 1 % of control; in data set [2] (300 μM), 100 ± 2 % of control. In addition, the “HBV Virion DNA Levels” value in data set [3] (0.01 μM, 2.2.15 cells) stood at 137 ± 14 pg/ml culture; in data set [3] (0.1 μM, 2.2.15 cells), 121 ± 13 pg/ml culture; in data set [3] (1.0 μM, 2.2.15 cells), 117 ± 12 pg/ml culture; in data set [3] (10 μM, 2.2.15 cells), 35 ± 4 pg/ml culture. The “Selectivity Index (CC50/EC90)” value in data set [3] (HBV replication, 2.2.15 cells) is greater than 16. Also, the EC50 in data set [3] (setting [4]) amounted to 5.3 ± 0.6 µM. In addition, in data set [3] (setting [5]), the EC90 came to 19 ± 2.1 µM.

Regarding `Nc1ncnc2c1ncn2[C@H]1C[C@H](O)[C@@H](COP(=O)(S)OCc2ccc3ccccc3c2)O1` (stereo partly drawn) [Nucleoside W198-22], in data set [1], the CC50 was greater than 300 µM. Further, the “Neutral Red Dye Uptake” value is recorded as 99 ± 2 % of control in data set [2] (10 μM), 101 ± 3 % of control in data set [2] (30 μM), 102 ± 2 % of control in data set [2] (100 μM) and 103 ± 2 % of control in data set [2] (300 μM). The “HBV Virion DNA Levels” value in data set [3] (0.01 μM, 2.2.15 cells) was 129 ± 13 pg/ml culture; in data set [3] (0.1 μM, 2.2.15 cells), 122 ± 13 pg/ml culture; in data set [3] (1.0 μM, 2.2.15 cells), 152 ± 11 pg/ml culture; in data set [3] (10 μM, 2.2.15 cells), 59 ± 2 pg/ml culture. The “Selectivity Index (CC50/EC90)” value in data set [3] (HBV replication, 2.2.15 cells) was greater than 9.4. The EC50 in data set [3] (setting [4]) was 10 ± 1.1 µM. For the same compound, in data set [3] (setting [5]), the EC90 is 32 ± 3.2 µM.

`C=C(C)[C@@H]1CC=C(COP(=O)(S)OC[C@H]2O[C@@H](n3cnc4c(N)ncnc43)C[C@@H]2O)CC1` (stereo partly drawn) [Nucleoside W198-24] yielded a CC50 in data set [1] greater than 300 µM. In addition, the “Neutral Red Dye Uptake” value in data set [2] (10 μM) is on record as 100 ± 1 % of control; in data set [2] (30 μM) it was 102 ± 2 % of control; in data set [2] (100 μM) it was 103 ± 1 % of control; in data set [2] (300 μM), 102 ± 1 % of control. Besides, the “HBV Virion DNA Levels” value in data set [3] (0.01 μM, 2.2.15 cells) was 140 ± 15 pg/ml culture; in data set [3] (0.1 μM, 2.2.15 cells) it was 133 ± 12 pg/ml culture; in data set [3] (1.0 μM, 2.2.15 cells), 149 ± 25 pg/ml culture; in data set [3] (10 μM, 2.2.15 cells), 62 ± 3 pg/ml culture. Also, the “Selectivity Index (CC50/EC90)” value in data set [3] (HBV replication, 2.2.15 cells) was greater than 7.7. Also, the EC50 in data set [3] (setting [4]) was found to be 12 ± 1.2 µM. Moreover, in data set [3] (setting [5]), the EC90 worked out at 39 ± 4.1 µM.
